In publication PMC4549712, “Inhibition of human GLUT1 and GLUT5 by plant carbohydrate products; insights into transport specificity” (Scientific Reports, 2015):
“Also recorded” adds a separate entry of the source.

Tests used:
human GLUT5 = biological target: T1, human GLUT5 (Homo sapiens, UniProt P22732); assay: entrance counter-flow transport assay, GLUT5-mediated fructose transport in proteoliposomes; assay type: biochemical; settings: added at 20 mM
T1 construct: Full length DNA was subcloned into pFastBac1 (Life Technologies) vector with a N-terminal hexahistidine tag; hexahistidine (thrombin-cleavable) (N, cleaved yes); made in house; host or cells: Sf21 insect cells (baculovirus, pFastBac1)
T1 sequence (P22732 1-501): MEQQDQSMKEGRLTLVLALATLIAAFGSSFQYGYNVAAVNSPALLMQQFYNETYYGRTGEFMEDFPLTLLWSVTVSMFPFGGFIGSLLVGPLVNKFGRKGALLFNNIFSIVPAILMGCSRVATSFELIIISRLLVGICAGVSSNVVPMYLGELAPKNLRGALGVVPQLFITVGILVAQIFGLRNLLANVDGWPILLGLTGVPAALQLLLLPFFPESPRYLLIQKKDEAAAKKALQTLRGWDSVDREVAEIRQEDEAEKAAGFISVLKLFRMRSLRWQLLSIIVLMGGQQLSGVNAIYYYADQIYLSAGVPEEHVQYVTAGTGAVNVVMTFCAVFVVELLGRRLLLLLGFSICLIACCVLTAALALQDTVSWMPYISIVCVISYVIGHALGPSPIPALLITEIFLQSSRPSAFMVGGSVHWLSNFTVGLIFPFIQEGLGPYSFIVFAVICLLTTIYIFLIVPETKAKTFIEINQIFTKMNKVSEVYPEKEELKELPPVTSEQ
Source text: (§1) Human GLUT1 and GLUT5 were expressed recombinantly in insect cell culture. The purified proteins were reconstituted into proteoliposomes. To measure the inhibition of GLUT1 or GLUT5 transport activity we used entrance counter-flow transport assay.
(§2) Proteoliposomes were generated according to the protocol from[30] with minor modifications. Liposomes were produced from a 95/5% (w/w) mix of soy phosphatidylcholine and cholesterol (Avanti Polar Lipids). Briefly, hexane-washed and vacuum-dried lipids were resuspended to 20 mg/ml in 100 mM KPi (pH 7.5), and then subjected to 11 freeze-and-thaw cycles in liquid nitrogen and room temperature water. The lipid mixture was extruded through a 0.1 μm polycarbonate filter. Prepared liposomes were destabilized with 4 mM Triton X-100 and mixed with purified protein in a 100:1 (w/w) ratio in 100 mM KPi (pH 7.5) 20% (v/v) glycerol, 200 mM (glucose or fructose). Detergent was removed by several additions of SM2 BioBeads (BioRad) and incubated overnight at 4 °C. After filtering out the BioBeads, proteoliposomes were diluted with 100 mM KPi (pH 7.5) 200 mM (glucose or fructose), and then collected by ultracentrifugation, at 200,000 × g and 4 °C, for 1 hour. The proteoliposomes pellet was resuspended in the above buffer so that O.D.600nm was ~30.
To measure hexose transport, we utilized entrance counter-flow assay. Transport was performed in a volume of 100 μL of 100 mM KPi (pH 7.5) buffer containing radioactive ^14C-hexose (4 μM fructose or 5 μM glucose) with inhibitors added before initiation of transport. […] The reaction was started by the addition of 3 μL concentrated proteoliposomes to the above solution and incubated at room temperature; the transport was stopped after one minute by addition of ice-chilled quench buffer [100 mM KPi (pH 5.5) and 100 mM LiCl]. The solution was filtered through a 0.4 μm pore size cellulose nitrate membrane filter (Whatman), and the filter was washed three times with quench buffer. The membrane filter was placed into a vial filled with BioSafe II scintillation liquid (Research Products International Corp.), and radioactivity was quantified with LS 6500 scintillation counter (Beckman). […] Data is presented as relative activity normalized to radioactivity of no inhibitor added as 100% and empty proteoliposomes as 0%. Kinetic parameters were fitted by nonlinear algorithm plots using Prism (GraphPad Software).

human GLUT1 = biological target: T2, human GLUT1 (Homo sapiens, UniProt P11166); assay: entrance counter-flow transport assay, GLUT1-mediated glucose transport in proteoliposomes; assay type: biochemical; settings: for inhibition of GLUT1 glucose transport activity: 20 mM
T2 construct: Full length DNA was subcloned into pFastBac1 (Life Technologies) vector with a N-terminal hexahistidine tag; hexahistidine (thrombin-cleavable) (N, cleaved yes); made in house; host or cells: Sf21 insect cells (baculovirus, pFastBac1)
T2 sequence (P11166 1-492): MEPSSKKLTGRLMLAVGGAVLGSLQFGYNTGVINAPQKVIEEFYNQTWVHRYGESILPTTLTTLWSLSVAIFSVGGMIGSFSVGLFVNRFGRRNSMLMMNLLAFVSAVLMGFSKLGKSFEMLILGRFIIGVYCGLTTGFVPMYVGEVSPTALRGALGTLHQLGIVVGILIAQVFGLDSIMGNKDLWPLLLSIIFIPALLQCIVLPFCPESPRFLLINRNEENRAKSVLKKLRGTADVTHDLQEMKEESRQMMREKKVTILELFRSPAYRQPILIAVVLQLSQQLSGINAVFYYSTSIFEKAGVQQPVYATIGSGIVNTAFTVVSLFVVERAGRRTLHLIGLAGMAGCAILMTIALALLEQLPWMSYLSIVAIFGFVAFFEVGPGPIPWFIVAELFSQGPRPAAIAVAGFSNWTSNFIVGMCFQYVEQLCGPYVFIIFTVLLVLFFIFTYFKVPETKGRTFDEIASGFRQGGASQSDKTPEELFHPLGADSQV
Description: as §1, with “assay. In GLUT1 and GLUT5 proteoliposomes, substrate transport reached steady state after one minute incubation at room temperature.” for “assay.”
as §2
To measure hexose transport, we utilized entrance counter-flow assay. Transport was performed in a volume of 100 μL of 100 mM KPi (pH 7.5) buffer containing radioactive ^14C-hexose (4 μM fructose or 5 μM glucose) with inhibitors added before initiation of transport. Radioactive substrate uptake in GLUT1 and GLUT5 (wild-type or mutant) proteoliposomes was constant between 1 and 2 mins. The reaction was started by the addition of 3 μL concentrated proteoliposomes to the above solution and incubated at room temperature; the transport was stopped after one minute by addition of ice-chilled quench buffer [100 mM KPi (pH 5.5) and 100 mM LiCl]. The solution was filtered through a 0.4 μm pore size cellulose nitrate membrane filter (Whatman), and the filter was washed three times with quench buffer. The membrane filter was placed into a vial filled with BioSafe II scintillation liquid (Research Products International Corp.), and radioactivity was quantified with LS 6500 scintillation counter (Beckman). […] The transport assays were unaffected by 5% DMSO. Data is presented as relative activity normalized to radioactivity of no inhibitor added as 100% and empty proteoliposomes as 0%. Kinetic parameters were fitted by nonlinear algorithm plots using Prism (GraphPad Software).

[1] = design: method as in PMID 22133440; settings: cited from earlier work
GLUT1 [2] = test system: GLUT1; design: method as in PMID 9286080; settings: cited from earlier work
human GLUT2 = test system: human GLUT2; design: method as in PMID 1716731; settings: cited from earlier work
human GLUT4 = test system: human GLUT4; design: method as in PMID 1716731; settings: cited from earlier work
[3] = test system: glucose/H+ symporter GlcPSe; design: method as in PMID 24127585; settings: cited from earlier work
GLUT5 [4] = test system: GLUT5; design: method as in PMID 9166863; settings: cited from earlier work
GLUT5 [5] = test system: GLUT5; design: method as in PMID 9166863; settings: read-out: GLUT5 Km for fructose; cited from earlier work
GLUT1 [6] = settings: read-out: GLUT1 Km for glucose; cited from earlier work
[7] = design: method as in PMID 22133440; settings: cited from earlier work; remark: listed apart in the source

## OC[C@H]1O[C@H](O[C@H]2[C@H](O)[C@@H](O)C(O)O[C@@H]2CO)[C@H](O)[C@@H](O)[C@@H]1O (mixture of isomers) [maltose]
Human GLUT5
  inhibition of GLUT5 fructose transport activity: neither maltose nor maltohexaose (6 glucose units) inhibited GLUT5
Human GLUT1; 20 mM compound
  GLUT1 transport activity (relative glucose transport): ~ 80%

## O=c1c(O[C@@H]2O[C@H](CO)[C@@H](O)[C@H](O)[C@H]2O)c(-c2ccc(O)cc2)oc2cc(O)cc(O)c12 [astragalin]
Human GLUT5
  inhibition of GLUT5 fructose transport activity: neither maltohexaose nor astragalin alone inhibit GLUT5
[1]
  solubility in water: insoluble in water

## C=C1[C@@H](C)[C@H]2[C@H](Cc3ccccc3)NC(=O)[C@]23OC(=O)/C=C/[C@H](O)CCC[C@@H](C)C/C=C/[C@H]3[C@@H]1O [cytochalasin B]
GLUT1 [2]
  inhibition of GLUT1 activity: inhibitors
Human GLUT2
  inhibition of human GLUT2: inhibit
Human GLUT4
  inhibition of human GLUT4: inhibit
[3]
  inhibition of bacterial glucose/H+ symporter GlcPSe: inhibit
GLUT5 [4]
  inhibition of GLUT5: not GLUT5

## C=C[C@@]1(C)CC(=O)[C@]2(O)[C@@]3(C)[C@@H](O)CCC(C)(C)[C@@H]3[C@H](O)[C@H](OC(C)=O)[C@@]2(C)O1 [forskolin]
GLUT1 [2]
  inhibition of GLUT1 activity: inhibitors
Human GLUT2
  inhibition of human GLUT2: inhibit
Human GLUT4
  inhibition of human GLUT4: inhibit
[3]
  inhibition of bacterial glucose/H+ symporter GlcPSe: inhibit
GLUT5 [4]
  inhibition of GLUT5: not GLUT5

## O=C(CO)[C@@H](O)[C@H](O)[C@H](O)CO [fructose]
GLUT5 [5]
  Km: ~10 mM

## OC[C@H]1OC(O)[C@H](O)[C@@H](O)[C@@H]1O (some centres unmarked) [glucose]
GLUT1 [6]
  Km: ~3 mM

## Astragalin-6-glucoside [Ast6G]
Human GLUT1
  inhibition of GLUT1 glucose transport activity: not inhibited; also recorded: did not inhibit
[7]
  redox scavenging properties compared to astragalin: increased redox scavenging properties

## maltohexaose
Human GLUT5
  inhibition of GLUT5 fructose transport activity: neither maltose nor maltohexaose (6 glucose units) inhibited GLUT5; also recorded: neither maltohexaose nor astragalin alone inhibit GLUT5
Human GLUT1
  inhibition of GLUT1 glucose transport activity: not inhibited
